“Also recorded” adds a separate entry of the source.
Assays:
LSEC fenestrations = test: SEM of LSEC fenestrations after drug treatments (Example 2, FIGS. 1-6); type: cell-based, mice; settings: for change in fenestration diameter: Bosentan 0.1 μM, Sildenafil 300 ng/ml, TRAIL 1 μg/ml; for sieve plates and fenestration density on SEM images: young and old mice
Text: Young and old C57B16 mice (n=3 young mice, age 3-4 and n=3 old mice, 20-24 months) were maintained under full SPF conditions and with ad libitum feeding. The study had the approval of the Sydney South West Area Health Service Animal Welfare Committee. Mice at 20-24 months are senescent. Animals were sacrificed withCO2 and livers immediately perfusion-fixed via a 23G needle inserted into the portal vein. Liver tissue was fixed with1% glutaraldehyde/4% para-formaldehyde in PBS (0.1M sucrose).
Drug treatments and dosages (shown superimposed on their corresponding image in FIGS. 1, and 2) were performed by incubating liver cells at 37° C., 5% CO2 for 30 mins using RPMI with or without dissolved drug. All images were taken by two blinded researchers using a SEM at 10,000×, scale bars of 1 μm are shown.
Each data point represents the average±SD of 8 images (as shown in FIGS. 1 and 2), 616-3312 fenestration raw data points were collected per treatment.

[1] = system: isolated LSECs (liver sinusoidal endothelial cells); test: SEM of fenestrations in isolated LSECs from young and old mice after 30 min drug treatment (second Example 7); type: cell-based; settings: for Diameter / Frequency / Porosity: 30 min; for effect on porosity and fenestration frequency (summary in words): young and old LSECs
Experimental: 3-4 and 18-24 month old male C57/B16 mice were obtained from the Animal Resource Centre in Perth, Western Australia. Animals were housed at the ANZAC Research Institute animal house on a 12 hour light/dark cycle and provided with ad libitum access to food and water. Mice were not fasted prior to euthanasia by a single intraperitoneal injection with 100 mg/kg ketamine and 10 mg/kg xylazine in saline. The study was approved by the Animal Welfare Committee of the Sydney Local Health District and was performed in accordance with the Australian Code of Practice for the care and use of animals for scientific research (AWC 2016/009). All information provided accords with the ARRIVE guidelines.
As described previously (Cogger et al. J e52698, 2015 https://dx.doi.org/10.3791/52698), mouse LSEC isolation was performed by perfusion of the liver with collagenase. Non-parenchymal cells were removed by a two-step Percoll gradient and Kupffer cells were removed by selective adherence to plastic. LSECs (seeded at 0.5×10^6 cells/cm2) were cultured (37° C., 5% CO2) in serum free RPMI-1640 for 3.5 hours before use.
Cells were treated with various agents for 30 minutes to determine effects on fenestrations. All agents were dissolved in serum-free RPMI media. All experiments were performed in triplicate for both young and old mice. Actin was disrupted with 0.5 μg/ml cytochalasin D and lipid rafts were disrupted with 3.6 and 1.8 μg/ml 7-keocholesterol; dosages were selected. […] The serotonergic/phospholipase C pathway was promoted with DOI (0.1 μg/ml) and endothelin receptors were inhibited by bosentan (550, 55 and 5.5 ng/ml) Death receptor 4 was promoted with TRAIL (100, 10. 1, 0.1 and 0.01 ng/ml) and NAD+ was promoted with NMN (5000, 50, 10, 1 and 0.1 μg/ml).
SEM was performed as previous described (Corbin et al J Biol Chem 274: 13729-13732, 1999.). LSECs were fixed in 2.5% glutaraldehyde in 0.1M sodium cacodylate buffer, osmicated, dehydrated in graded ethanol and hexamethyl disilazane, mounted on stubs, sputter coated with platinum and examined using a JEOL 6380 Scanning Electron Microscope (JEOL Ltd, Japan). Images at 10,000× magnification were collected by a blinded observer and used to measure fenestration diameter and LSEC porosity using Image J (NIH, MD, USA). […] Fenestrations less than 30 nm and gaps more than 300 nm were excluded from analysis. Porosity was defined as the percentage of the cell membrane covered with fenestrations. Frequency was defined at the number of fenestrations per […].
Individual specifications of analyses are described in figures legends. All data are presented as mean±SD. Experimental design and analysis were performed in accordance with the APS guidelines described in Curran-Everett and Benos DJ. Adv Physiol Educ 31: 295-298, 2007.

[2] = system: actin cytoskeleton of LSECs; test: dSTORM imaging of the actin cytoskeleton; type: cell-based; settings: young mice
Experimental: dSTORM imaging was performed using an in-house microscope. LSECs were prepared for dSTORM by washing twice with PBS and fixation with 4% paraformaldehyde for 30 mins. Then LSECs were washed twice with PBS, permeabilised with Triton-X for 90 secs, blocked with 5% bovine serum albumin for 1 hour, and stained with Alexa Flour phalloidin 488 (1:40) for 20 min prior to imaging. Cells were washed using PBS with 0.1% Tween and placed in OxEA buffer (30) for dSTORM visualisation and image capture. The dSTORM used 488 and 647 nm excitation from diode-pumped lasers (Coherent Inc, CA, USA). Excitation was delivered via a 1.49NA 60× oil-immersion TIRF objective (Olympus Australia, AUS). Fluorescence was captured on two separate sCMOS cameras (Imaging Development Systems GmbH, Germany). Data was collected for up to 40,000 images at around 75 fps. 5-8 whole cell images were collected by a blinded observer for each treatment dosage and processed using rapidSTORM open source software (Wolter et al. Nat Methods 9: 1040, 2012.). Each image was examined for all sieve plates and actin structures. Densitometry measurements were performed using 5-8 dSTORM images with data analysis performed using Image J software (NIH, MD, USA).

Intracellular cGMP = test: Cyclic GMP ELISA; type: cell-based, mice; settings: p=0.001
Experimental: Assays for MTT and cGMP were performed as instructed by the kit. Briefly, MTT assays were performed following drug treatments. Cells were washed with PBS and incubated with RPMI media containing […] MTT solution. Cells were incubated at 37° C. for 4 hrs and lysed with […] solubilisation solution, 30 mins colour development followed and measured at 570 nm using a spectrophotometer. cGMP assays were also performed after drug treatments. Cells were washed with PBS and lysed with 0.1M HCl. Following sample collection the sample was acetylated and prepared with kit reagents. Samples were incubated for 18 hrs at 4° C. before examination at 410 nm with a spectrophotometer.

[3] = system: lipid rafts and fenestrations of LSECs; test: 3D-SIM study of lipid rafts and fenestrations; type: cell-based
Text: Sieve plates containing fenestrations are intercalated between thickened areas of membrane (lipid rafts).

## CCOC(=O)C1=C(COCCN)NC(C)=C(C(=O)OC)C1c1ccccc1Cl (stereo not shown) [Amlodipine, amlodipine]
LSEC fenestrations; young mice, 20 ng/ml
  fenestration diameter: 123.8±1.6 nm
[1]; old mice, 5 ng/ml
  Diameter: 119.67 ± 22.63 nm
  Frequency: 3.56 ± 1.07 no/area
  Porosity: 4.44 ± 0.29 %
[1]; old mice, 20 ng/ml
  Change in Frequency, Old: ↑ (ns)
  Change in Porosity, Old: ↑ (ns)
  Diameter: 125.00 ± 13.36 nm
  Frequency: 3.00 ± 0.66 no/area
  Porosity: 3.98 ± 0.48 %
[1]; young mice, 5 ng/ml
  Diameter: 125.87 ± 9.30 nm
  Frequency: 3.47 ± 1.00 no/area
  Porosity: 4.73 ± 0.80%
[1]; young mice, 20 ng/ml
  Diameter: 123.66 ± 1.18 nm
  Frequency: 4.67 ± 0.65 no/area
  Porosity: 6.44 ± 1.14 %

## COc1ccccc1Oc1c(NS(=O)(=O)c2ccc(C(C)(C)C)cc2)nc(-c2ncccn2)nc1OCCO [Bosentan, bosentan]
LSEC fenestrations; old mice, 0.1 μM
  fenestration porosity: 4.2±0.4%
LSEC fenestrations; old mice, 7KC 4.5 μM
  change in fenestration diameter: No changes
LSEC fenestrations
  sieve plates and fenestration density on SEM images: maintained sieve plates and increased fenestration density
LSEC fenestrations; young mice, 0.1 μM
  fenestration porosity: 5.4±0.1%
LSEC fenestrations; young mice
  change in fenestration diameter: No changes
[2]
  actin changes with drug treatments (dSTORM): Stress fibres; also recorded: Fused actin structure; also recorded: Individual fenestrations
[1]; old mice, 5.5 ng/ml
  Diameter: 131.03 ± 16.29 nm
  Frequency: 3.14 ± 0.35 no/area
  Porosity: 4.53 ± 0.59 %
[1]; old mice, 55 ng/ml
  Diameter: 121.14 ± 23.80 nm
  Frequency: 2.31 ± 1.03 no/area
  Porosity: 3.21 ± 0.36%
[1]; old mice, 550 ng/ml
  Diameter: 118.64 ± 4.36 nm
  Frequency: 1.46 ± 0.54 no/area
  Porosity: 1.86 ± 0.72%
[1]
  effect on porosity and fenestration frequency (summary in words): LSECs from old mice only were responsive
[1]; young mice, 5.5 ng/ml
  Diameter: 129.55 ± 5.46 nm
  Frequency: 3.66 ± 0.30 no/area
  Porosity: 5.18 ± 0.45%
[1]; young mice, 55 ng/ml
  Diameter: 132.12 ± 9.03 nm
  Frequency: 3.20 ± 1.23 no/area
  Porosity: 4.48 ± 1.12%
[1]; young mice, 550 ng/ml
  Diameter: 133.73 ± 9.03 nm
  Frequency: 2.30 ± 0.04 no/area
  Porosity: 3.66 ± 0.41%

## CCCc1nn(C)c2c(=O)[nH]c(-c3cc(S(=O)(=O)N4CCN(C)CC4)ccc3OCC)nc12 [Sildenafil, sildenafil]
LSEC fenestrations; old mice, 300 ng/ml
  fenestration porosity: 5.4±1.9%
LSEC fenestrations; old mice, 7KC 4.5 μM
  change in fenestration diameter: No changes
LSEC fenestrations
  sieve plates and fenestration density on SEM images: maintained sieve plates and increased fenestration density
LSEC fenestrations; young mice, 300 ng/ml
  fenestration porosity: 7.1±2.2%
LSEC fenestrations; young mice
  change in fenestration diameter: No changes
Intracellular cGMP
  increase of intracellular cGMP: 3 fold
[2]
  actin changes with drug treatments (dSTORM): disordered, dense actin staining in the plasma membrane and clustering of actin within the cytoplasm; also recorded: Disordered actin structure; also recorded: Gap formations; also recorded: Individual fenestrations
[2]; listed as sildenafil
  actin changes with drug treatments (dSTORM): loss of smooth fibres encircling the cytoplasm
[1]; old mice, 0.3 μg/ml
  Diameter: 138.91 ± 13.05 nm
  Frequency: 3.41 ± 0.68 no/area
  Porosity: 5.49 ± 1.33 %
[1]; old mice, 0.6 μg/ml
  Diameter: 143.69 ± 10.80 nm
  Frequency: 2.88 ± 01.16 no/area
  Porosity: 4.97 ± 1.34 %
[1]
  effect on porosity and fenestration frequency (summary in words): significant increases in porosity and fenestration frequency in both young and old LSECs
[1]; young mice
  dose response on fenestration porosity (words): limited dosage range for positive effects on fenestration porosity
[1]; young mice, 0.3 μg/ml
  Diameter: 126.34 ± 16.36 nm
  Frequency: 4.54 ± 0.34 no/area
  Porosity: 6.34 ± 2.09 %
[1]; young mice, 0.6 μg/ml
  Diameter: 130.33 ± 16.02 nm
  Frequency: 3.56 ± 0.61 no/area
  Porosity: 4.92 ± 0.35%
[1]; young mice, listed as sildenafil
  dose response on fenestration porosity (words): did not promote greater changes in fenestration porosity or frequency
[1]; young mice, sildenafil 0.3 μg/ml, amlodipine 20 ng/ml, TRAIL 1 ng/ml
  fenestration numbers, fenestrated cell area and sieve plate formation: increased fenestration numbers and overall fenestrated cell area with some disruption to sieve plate formation

## CCC(C)(C)C(=O)O[C@H]1C[C@@H](C)C=C2C=C[C@H](C)[C@H](CC[C@@H]3C[C@@H](O)CC(=O)O3)[C@H]21 [Simvastatin, simvastatin]
LSEC fenestrations; old mice, both Simvastatin treatments
  fenestration diameter: 152.0±19.2 nm
[1]; old mice, 0.1 μg/ml
  Change in Diameter, Old: ↑ (ns)
  Diameter: 147.47 ± 6.47 nm
  Frequency: 1.89 ± 0.74 no/area
[1]; old mice, 1 μg/ml
  Change in Diameter, Old: ↑ (ns)
  Diameter: 145.96 ± 6.55 nm
  Frequency: 1.88 ± 0.86 no/area
[1]; young mice, 0.1 μg/ml
  Diameter: 144.35 ± 18.95 nm
  Frequency: 2.42 ± 0.55 no/area
  Porosity: 4.05 ± 0.41%
[1]; young mice, 1 μg/ml
  Diameter: 126.55 ± 9.64 nm
  Frequency: 2.83 ± 0.51 no/area
  Porosity: 3.99 ± 0.55%

## Triton X-100
[3]
  effect on fenestrations and lipid rafts: decreased fenestrations and increased rafts

## VEGF
[3]
  effect on fenestrations and lipid rafts: depleted lipid rafts and increased fenestrations

— patent US20210161894A1, “Compositions and Methods for Modulating Liver Endothelial Cell Fenestrations” (priority 2017, published 2021)
